Data: US20110245334A1, “USE OF RACEMATES OF PINOCEMBRIN IN PREPARING MEDICAMENTS FOR TREATING STROKE” (CSPC Zhonggi Pharmaceutical Technology (Shijiazhuang) Co. …, priority 2008, published 2011)

Assays:
Assay type in all cases: in vivo, rat
plasma fibrinogen = experiment: Plasma fibrinogen assay (ELISA) in SHRSP; parameters: Plasma fibrinogen: unit not given here; details: SHRSP rats
Experimental: The mixture was centrifuged for 15 min at 3000 rpm and plasma fibrinogen in liquid supernatant was determined by euzymelinked immunosorbent assay (ELISA).

plasma ET-1 = experiment: Plasma ET-1 (radioimmunoassay) in SHRSP; parameters: ET-1 content: unit not given here; details: plasma, SHRSP rats
Experimental: 5) Blood of 2 mL was dropped rapidly in a cuvette with 30 μL 7.5% EDTA-2Na and 40 μL aprotinin and mixed. After centrifuged for 5 min at 3000 rpm, plasma ET-1 in liquid supernatant was determined by isotope radioimmunoassay.

MCAO rats = experiment: Cerebral infarct volume (TTC), MCAO
Experimental: After neurobehavioral scoring, the rats were put to death by decollation and their brain tissues were removed quickly and put into a refrigerator of −20° C. 10 min later, the brain tissue was moved to an environment of room temperature. After the olfactory bulb, cerebellar and lower brain stem were resected, the brain tissue was cut into five continuous coronal slices with an interval of 2 mm and was cut first on the connection midpoint of brain anterior pole and optic decussation, second on optic decussation, third on funnel handle and fourth on midpoint of funnel handle and thick leaves caudate nucleus. Then the brain slices were quickly put into 5 ml solution containing 4% TTC and 0.1 ml mol·L^−1K2HPO4 and incubated at a constant temperature of 37° C. and in condition of darkness for 30 min. During the time period, the brain slices were tipped every 5 min. […] Every group of brain slices were put in order and photographed. The photographs were processed by an image analysis system and infarct area in every slice was calculated. The infarct volume of every slice was calculated by multiplying the infarct area by the thickness of slice (2 mm), and the infarct volume was the sum of infarct volumes of all slices.
Infarct volume(%)=(volume of surgery-contralateral hemisphere−infarct volume of surgery-homolateral hemisphere)/volume of surgery-contralateral hemisphere×100%

tMCAO rats [1] = experiment: Infarct volume (TTC), tMCAO time window study; details: 2 hours ischemia and 24 hours reperfusion
Experimental: (§1) 1. In the test, transient middle cerebral artery occlusion (tMCAO) model of rats was adopted. The reperfusion was performed after focal cerebral ischemia for 2 hours so as to inspect therapeutic time window of pinocembrin after focal cerebral ischemia. The rats were administered by pinocembrin racemate (1 mg/kg, 5 mg/kg, intravenous injection) after reperfusion 1 hour, 4 hours and 6 hours (i.e., ischemia 3 hour, 6 hours and 8 hours). (R)-pinocembrin and (S)-pinocembrin (1 mg/kg, 5 mg/kg, intravenous injection) were administered after reperfusion 1 hour and 4 hours (i.e., ischemia 3 hour and 6 hours). The therapeutic time windows of these drugs in focal cerebral ischemia were assessed by studying their effects to neurological symptom scores, infarct sizes and brain water contents during 24 hours after tMCAO.
(§2) 2.4 Experimental Grouping and Administration • Sham operation group (intravenous injection of normal saline after 3 hours of ischemia); • Model group (intravenous injection of 50 mg/kg hydroxypropyl β-cyclodextrin after 3 hours of ischemia); • Nimodipine group (1 mg/kg, administered after 3 hours of ischemia); • Pinocembrin racemate group (1 mg/kg, 5 mg/kg, administered after 3, 6 and 8 hours of ischemia); • (R)-pinocembrin group (1 mg/kg, 5 mg/kg, administered after 3 and 6 hours of ischemia); • (S)-pinocembrin group (1 mg/kg, 5 mg/kg, administered after 3 and 6 hours of ischemia).
(§3) First administration was performed by intravenous injection, and intraperitoneal injection was carried out once 12 hours later with a dose 1.5 times of that for intravenous injection.
After neurobehavioral scoring, the rats were put to death by decollation and their brain tissues were taken out quickly and put into a refrigerator of −20° C. 10 min later, the brain tissues were moved to an environment of room temperature. After the olfactory bulb, cerebellar and lower brain stem were resected, the brain tissue was cut into six continuous coronal slices with an interval of 2 mm. Then the brain slices were quickly put into 5 ml solution containing 2% TTC and incubated at a constant temperature of 37° C. and in a condition of darkness for 30 min. During the time, the brain slices were tipped every 5 min. […] Every group of brain slices were put in order and photographed. The photographs were processed by an image analysis system and the infarct areas in each slice were calculated. The infarct volume of each slice was calculated via multiplying the infarct area by thickness of slice (2 mm), and the infarct volume was the sum of infarct volumes of all slices. The infarct volume percentage was expressed as: sick-side infarct volume/total sick-side brain volume.

tMCAO rats [2] = experiment: Brain water content, tMCAO time window study; details: 2 hours ischemia and 24 hours reperfusion
Experimental: as §1, §2, §3
The wet weight of each animal's brain was weighted before sliced. After staining, the brain slices were dried at 105° C. for 24 hours, and the dry weight of each animal's brain was weighted. The brain water contents of animals of various groups were compared. Brain water content=(brain wet weight−brain dry weight)/brain wet weight×100%.

COCCOC(=O)C1=C(C)NC(C)=C(C(=O)OC(C)C)C1c1cccc([N+](=O)[O-])c1 (stereo not drawn) [Nimodipine, reference compound]
Plasma fibrinogen (plasma fibrinogen; 3 mg/kg): 2.67 ± 0.13
ET-1 content (plasma ET-1; 3 mg/kg): 174.8 ± 20.8
Percentage of infarct volume (%) (MCAO rats; 3 mg/kg): 16.7 ± 1.3 %
Percentage of infarct volume (%) (MCAO rats; 3 mg/kg, listed as nimodipine): 16.7±1.3%
Infarct percentage (%) (tMCAO rats [1]; 1 mg/kg, 3 h): 31.30 ± 10.31%
Brain water content (%) (tMCAO rats [2]; 1 mg/kg, 3 h): 83.33 ± 1.01%

O=C1CC(c2ccccc2)Oc2cc(O)cc(O)c21 (racemic) [Pinocembrin racemate, pinocembrin racemate]
Plasma fibrinogen (plasma fibrinogen; 3 mg/kg): 2.79 ± 0.13
Plasma fibrinogen (plasma fibrinogen; 10 mg/kg): 2.62 ± 0.15
Plasma fibrinogen (plasma fibrinogen; 30 mg/kg): 2.56 ± 0.42
ET-1 content (plasma ET-1; 3 mg/kg): 221.4 ± 20.4
ET-1 content (plasma ET-1; 10 mg/kg): 209.2 ± 16.7
ET-1 content (plasma ET-1; 30 mg/kg): 182.4 ± 24.2
Percentage of infarct volume (%) (MCAO rats; 3 mg/kg): 23.1 ± 3.4 %
Percentage of infarct volume (%) (MCAO rats; 3 mg/kg, listed as pinocembrin racemate): 23.1±3.4%
Percentage of infarct volume (%) (MCAO rats; 10 mg/kg): 21.4 ± 2.1 %
Percentage of infarct volume (%) (MCAO rats; 10 mg/kg, listed as pinocembrin racemate): 21.4±2.1%
Percentage of infarct volume (%) (MCAO rats; 30 mg/kg): 14.6 ± 1.1 %
Percentage of infarct volume (%) (MCAO rats; 30 mg/kg, listed as pinocembrin racemate): 14.6±1.1%
Infarct percentage (%) (tMCAO rats [1]; 1 mg/kg, 3 h): 16.59 ± 7.98 %
Infarct percentage (%) (tMCAO rats [1]; 1 mg/kg, 6 h): 23.01 ± 11.00%
Infarct percentage (%) (tMCAO rats [1]; 1 mg/kg, 8 h): 27.16 ± 13.69%
Infarct percentage (%) (tMCAO rats [1]; 5 mg/kg, 3 h): 13.64 ± 6.32 %
Infarct percentage (%) (tMCAO rats [1]; 5 mg/kg, 6 h): 15.03 ± 4.07 %
Infarct percentage (%) (tMCAO rats [1]; 5 mg/kg, 8 h): 28.32 ± 18.65%
Brain water content (%) (tMCAO rats [2]; 1 mg/kg, 3 h): 82.20 ± 1.00 %
Brain water content (%) (tMCAO rats [2]; 1 mg/kg, 6 h): 82.44 ± 1.28 %
Brain water content (%) (tMCAO rats [2]; 1 mg/kg, 8 h): 83.26 ± 1.05%
Brain water content (%) (tMCAO rats [2]; 5 mg/kg, 3 h): 82.23 ± 1.42 %
Brain water content (%) (tMCAO rats [2]; 5 mg/kg, 6 h): 81.12 ± 1.42 %
Brain water content (%) (tMCAO rats [2]; 5 mg/kg, 8 h): 83.29 ± 1.79%
